According to US8975275B2, “Use of chemotherapeutic agents” (priority 1999, dated 2015):
Counter-ions that a name gives are not always drawn.

What was measured:
Assay type in all cases: in vivo, human
[1] = system: infected root canal and periapical region; assay: Topical treatment of the infected root canal and the periapical region (patient cases)
Experimental: In the clinical use of the compounds of formula (I) or formula (II), the pulp residues are removed first. The preparation of the canals is carried out with minimum discomfort for the patient. The canals are then flushed with hydrogen peroxide, Other methods of disinfection can be omitted. The compounds of formula (I) or formula (II), in a liquid form of administration, are then introduced into the toot canal under pressure using a cannula. The compounds of formula (I) or (II) are then injected in dissolved form or in a gelatinous form of administration. The root canal is subsequently occluded in the crown region, first with a cotton wool plug and then with zinc phosphate cement to seal the margins. If the canals are not gangrenous, the antibiotics remain in the canals for 3 days. […] The compounds of formula (I) or formula (II) can be used in concentrations of 0.005 mg/ml to 200 mg/ml.
In this application technique, which is known from intraligamental anaesthesia, the tooth is completely flooded with the antibacterial solution of the compounds of formula (I) or formula (II) in the entire root region.

periodontal diseases = assay: Topical treatment of periodontal diseases (patient cases)
Text: To do this, threads or so-called chips impregnated with solutions or gelatinous preparations of the compounds of formula (I) or formula (II) are inserted in the gingival pocket. A possible alternative is to use medicament carriers in the form of trays covering the teeth and gingiva. Before they are applied, the gelatinous applications of the compounds of formula (I) or formula (II) are instilled into the gingival pockets. In addition, the gel containing the compounds of formula (I) or formula (II) can also be placed in the medicament carrier. This use of medicament carriers is advantageous because the treatment time can be reduced by the rapid onset of action to about 15 to 30 minutes, so the treatment can be carried out directly in the surgery. The compounds of formula (I) or formula (II) can be used in concentrations of 0.005 mg/ml to 200 mg/ml. Preferred concentrations are those ranging from 0.5 mg/ml to 200 mg/ml and particularly preferred concentrations are those ranging from 10 to 150 mg/ml. Periodontal diseases can also be treated by administering the compounds of formula (I) or formula (II) by intraligamental injection, it being possible to use concentrations ranging from 0.005 mg/ml to 200 mg/ml, preferably from 0.5 mg/ml to 200 mg/ml. For the antibiotics commonly used nowadays, such as tetracyclines, an intraligamental injection is not reasonable since these compounds with a predominantly bacteriostatic action are quickly washed out due to the rapid fluid exchange in the periodontal interstice, and cannot develop their action. Tetra-cyclines can therefore only develop their effects via depot formulations. By contrast, the compounds of formula (I) or formula (II) have a very rapid and also bactericidal action, so their residence time in the periodontal interstice is sufficient to destroy the microbes.

[2] = system: wounds, bacterial skin infections, diabetic foot syndrome; assay: Wound care: topical/local application (patient cases); conditions: for wound check-up, ulcer c) / wound check-up, ulcer a) / wound check-up, ulcer b): Patient D 3; for wound check-up: Patient D 4
Text: Postoperative wound infections can generally occur in cases of inadequate infection prophylaxis following surgical interventions. Posttraumatic wound infections can arise due to cuts, stings, bruises, bites or gunshot wounds. Local perioperative prophylaxis can be carried out in the case of aseptic operations with a slight risk of infection. It is also possible to use local perioperative prophylaxis in addition to systemic perioperative prophylaxis, for example in the case of infections with an increased risk of infection, such as implantations, heart operations, transplantations, neurosurgical operations, operations in a highly contaminated area such as the oral cavity, oesophagus, rectum or colon, hysterectomy, bile duct operations, operations on patients with lowered resistance, or amputations. The local treatment of first, second or third degree burns can be administered prophylactically or after infection. […] Examples of hand infections are panaritium cutaueum, panaritium subcutaneum, panaritium ossale, panaritium articulate or tendovaginitis purulenta. In postoperative sepsis the infected wounds can be rendered substantially or completely free of microbes by the topical application of antibacterial agents. Gangrenes can be handled by local treatment with antibiotics in addition to therapy with parenteral antibiotics. Examples of acute bacterial skin infections are pyoderma, erysipelas, furuncles, carbuncles, phlegmons, abscesses, ulcus cruris, diabetic foot, infected decubital ulcers, blood blisters, erysipeloids or erytlrasma. Examples of chronic bacterial skin infections are lupus vulgaris, swimming-pool granuloma, Buruli ulcers or actinomycosis. Secondary bacterial infections occur for example in virus infections such as herpes simplex, herpes zoster or chicken-pox. Secondary bacterial infections of dermatoses occur for example in eczema, the exudation stage of neurodermatitis, vesicular dermatoses or contact dermatitis. Milder and moderate forms of acne and rosacea can also be treated locally.

[3] = gel (1%) weekly, after 2nd week

## COc1c(N2C[C@@H]3CCCN[C@@H]3C2)c(F)cc2c(=O)c(C(=O)O)cn(C3CC3)c12 [moxifloxacin hydrochloride, 1-cyclopropyl-6-fluoro-1,4-dihydro-8-methoxy-7-[(4aS,7aS)-octahydro-6H-pyrrolo[3,4-b]pyridin-6-yl]-4-oxo-3-quinolinecarboxylic acid]
[1]; Patient A 3.11, tooth 34 apical periodontitis, fistula, root canal insert gel 100 mg/ml, check-up after 10 days
  clinical finding at check-up: patient symptom-free
[1]; Patient A 3.12, tooth 44 fistulation, gangrenous, solution 50 mg/ml by paper point + intraligamental injection 50 mg/ml, check-up after 8 days
  clinical finding at check-up: patient symptom-free
[1]; Patient A 3.15, tooth 31 apical periodontitis due to gangrene, solution 50 mg/ml + gel 50 mg/ml + intraligamental injection 50 mg/ml, check-up after 9 days
  clinical finding at check-up: patient symptom-free, canal odourless
[1]; Patient A 3.21, repetition of flushing and insert, check-up after 10 days
  clinical finding at check-up: patient symptom-free
[1]; Patient A 3.21, tooth 22 fistula, gangrenous, flushing solution 50 mg/ml + gel 50 mg/ml + intraligamental injection 50 mg/ml, check-up after 8 days
  clinical finding at check-up: patient still not fully symptom-free, canal still had very slight odor
[1]; Patient A 3.3, tooth 11 apical periodontitis due to gangrene, solution 50 mg/ml + gel 50 mg/ml + intraligamental injection 50 mg/ml, check-up after 3 days
  clinical finding at check-up: patient symptom-free, canal odourless
[1]; Patient A 3.4, tooth 11 apical periodontitis, not gangrenous, root canal insert gel 50 mg/ml, check-up after 3 days
  clinical finding at check-up: patient symptom-free
[1]; Patient A 3.5, tooth 35 apical periodontitis due to gangrene, solution 50 mg/ml + gel 50 mg/ml + intraligamental injection 50 mg/ml, check-up after 7 days
  clinical finding at check-up: no gangrenous odour, no bite discomfort
[1]; Patient A 3.6, tooth 36 apical periodontitis due to gangrene, gel 50 mg/ml + intraligamental injection 50 mg/ml, check-up after 8 days
  clinical finding at check-up: no gangrenous odour, patient symptom-free
[1]; Patient A 3.7, tooth 14 apical periodontitis due to gangrene, gel 100 mg/ml + intraligamental injection 50 mg/ml, check-up after 7 days
  clinical finding at check-up: patient symptom-free
[1]; Patient A 3.8, tooth 34 apical periodontitis due to gangrene, gel 50 mg/ml + intraligamental injection 50 mg/ml, check-up after 13 weeks
  clinical finding at check-up: patient symptom-free, canal odour-free
[1]; Patient A 3.9, tooth 46 apical periodontitis, not gangrenous, gel 100 mg/ml + intraligamental injection 50 mg/ml, check-up after 7 days
  clinical finding at check-up: patient symptom-free
Periodontal diseases; Patient B 1, teeth 26 and 27 marginal periodontitis, thread insert gel 50 mgn/ml, check-up after 3 days
  clinical finding at check-up: patient symptom-free, gingival regions and pockets inflammation-free
Periodontal diseases; Patient B 2, teeth 14 to 18 severe marginal periodontitis, thread insert gel 50 mg/ml, check-up after 4 days
  clinical finding at check-up: patient symptom-free, gingival regions and pockets inflammation-free
Periodontal diseases; Patient B 3, teeth 24 to 28 marginal periodontitis, thread insert 50 mg/ml, check-up after 5 days
  clinical finding at check-up: patient symptom-free, gingival regions and pockets inflammation-free
Periodontal diseases; Patient B 4, marginal periodontitis entire upper and lower jaw, medicinal splint gel 0.25 mg/ml 10 minutes/day for 4 days, check-up after 3 days
  clinical finding at check-up: patient symptom-free, no more inflammatory phenomena present
Periodontal diseases; Patient B 5, tooth 37 marginal periodontitis, thread insert gel 50 mg/ml, check-up after 8 days
  clinical finding at check-up: patient symptom-free, gingival regions and pockets inflammation-free
Periodontal diseases; Patient B 6, teeth 25-28 severe marginal periodontitis, thread insert gel 50 mg/ml + intraligamental injection 50 mg/ml, check-up after 10 days
  clinical finding at check-up: patient symptom-free, gingival regions and pockets inflammation-free
[2]; Patient D 1, combustio escharotica on left forearm, gel (1%), after one week
  wound outcome: Regeneration of skin epithelium with complete wound closure
[2]; D IV/D V, gel (1%) weekly, after 2nd week
  wound check-up, ulcer c): ulcer C IV/D V healed
[2]; deep 2×1.5 cm greasy ulcer under right big toe, dressings with gel (1%) at weekly intervals, after 1st week
  wound check-up, ulcer a): ulcer D I, 1×0.5 cm, clean
[2]; [3]
  wound check-up, ulcer a): ulcer D I pinhead-size, clean
  wound check-up: ulcer healed
[2]; gel (1%) weekly, after 3rd week
  wound check-up, ulcer a): ulcer D I unchanged
[2]; gel (1%) weekly, after 4th week
  wound check-up, ulcer a): ulcer D I healed
[2]; large fissure D IV/D V, dressings with gel (1%) at weekly intervals, after 1st week
  wound check-up, ulcer c): ulcer D IV/D V encrusted
[2]; large ulcer D III, dressings with gel (1%) at weekly intervals, after 1st week
  wound check-up, ulcer b): ulcer D III clean
[2]; ulcer D III, gel (1%) weekly, after 2nd week
  wound check-up, ulcer b): ulcer D III, clean granular tissue
[2]; ulcer D III, gel (1%) weekly, after 3rd week
  wound check-up, ulcer b): ulcer D III pinhead-size
[2]; ulcer D III, gel (1%) weekly, after 4th week
  wound check-up, ulcer b): ulcer D III healed
[2]; diabetic foot syndrome, 1×1 cm greasy ulcer, dressings with gel (1%) at weekly intervals, after 1st week
  wound check-up: ulcer 0.2×0.4 cm, clean
[2]; Patient D 5, diabetic gangrene on left big toe, four applications of gel (1%) at weekly intervals
  wound outcome: Regeneration of skin epithelium with complete wound closure, revascularization
[2]; Patient D 7, phlegmons on palm of left hand, incision, local antibiosis with gel (1%), repeated after 2 days
  clinical outcome: Patient symptom-free
[2]; Patient D 9, carbuncle on back of neck, excision, open wound treatment with impregnated compress
  clinical outcome: Patient symptom-free
